For data set [1] the following is noted: cited from earlier work; for pKa: H2O, 25° C., Lange's Handbook of Chemistry.
The nature of data set [2]: Hydrolysis of kinetically formed trialkylphosphate in the presence of water (1H NMR). Type of data set: physicochemical.
Description: (§1) 3.3 Kinetic favorability of phosphotriester formation over hydrolysis in the presence of water. The reaction of quinone methide 7 and two equivalents of dibenzylphosphoric acid in the presence of excess water (˜200 equivalents for a homogeneous solution) afforded only trialkylphosphate 8 as the product in the equilibrium by 1H NMR analysis. […] Trialkylphosphate 8 is the kinetic product. A similar amount of 8 is produced in the presence of a much higher concentration of water (3,000 equivalents forming a bilayer) at ambient temperature after 30 minutes. […] Hydrolysis to benzyl alcohol appears to be the thermodynamic product^39. Similar results of quinone methides reacting with amino acid derivatives under aqueous conditions have been reported by other researchers^43.
as §1, with “(3)” for “3.3”, “^1H” for “1H”, “product. […]” for “product^39. Similar results of quinone methides reacting with amino acid derivatives under aqueous conditions have been reported by other researchers^43.”

Consider 6 compounds from patent US6657052B1, “Biomolecular labeling” (University of Arkansas, priority 1997, dated 2003).

For the compound `Nc1cccc(O)c1` [3-aminophenol], the pKa (as a rule, the pH at which an ionisable group is half protonated) in data set [1] is 9.83.
As to `Cc1cc(COP(=O)(OCc2ccccc2)OCc2ccccc2)cc(C)c1O` [trialkylphosphate 8], the “hydrolysis to benzyl alcohol” value in data set [2] (3,000 equivalents water forming a bilayer, ambient temperature, after 18 hours) is listed as “complete conversion to benzyl alcohol”; in data set [2] (excess water (~200 equivalents, homogeneous solution), 18 hours at ambient temperature), “Minor amounts of the benzyl alcohol hydrolysis product”.
For the compound `N=C(N)N` [guanidine], in data set [1], the pKa is 14.38.
As to `CCN(C)CC` [Et2MeN], in data set [1], the pKa is listed as 10.4.
Regarding `N=C(N)Nc1ccccc1` [phenylguanidine], the “reported pKa values for various substituted guanidines” value in data set [1] was 10.8.
Take `CNC(=N)N` [methylguanidine]: in data set [1], the pKa is listed as 14.1 and the “reported pKa values for various substituted guanidines” value is on record as 14.1.
